Laboratory results published in the NIST ThermoML archive (doi:10.1016/j.jct.2009.10.007).
± gives the expanded uncertainty stated by the source.

Legend:
[1] = refractive index (Na D-line) (dimensionless); mn = molality of the nth substance listed, in mol/kg; details: 308.15 K, 101 kPa, Liquid, Standard Abbe refractometry
[2] = mn = molality of the nth substance listed, in mol/kg; details: 101 kPa, Liquid; for speed of sound: Sing-around technique in a fixed-path interferometer; for mass density: Vibrating tube method

CCCCn1cc[n+](C)c1.[Br-] [1-butyl-3-methylimidazolium bromide] + O
[1]
Details	refractive index
m1 = 0.0096	1.3326 ± 0.0005
m1 = 0.02	1.3343 ± 0.0005
m1 = 0.0298	1.3358 ± 0.0005
m1 = 0.0348	1.3366 ± 0.0005
m1 = 0.0398	1.3375 ± 0.0005
m1 = 0.05	1.339 ± 0.0005
m1 = 0.0548	1.3397 ± 0.0005
m1 = 0.0598	1.3405 ± 0.0005
m1 = 0.0689	1.3419 ± 0.0005
m1 = 0.082	1.3439 ± 0.0005
m1 = 0.0854	1.3444 ± 0.0005
m1 = 0.0896	1.3451 ± 0.0005
m1 = 0.1	1.3466 ± 0.0005
m1 = 0.1192	1.3497 ± 0.0005

[2]
Details	mass density, 288.15 K [kg/m3]	mass density, 293.15 K [kg/m3]	mass density, 298.15 K [kg/m3]	mass density, 303.15 K [kg/m3]	mass density, 308.15 K [kg/m3]	speed of sound, 288.15 K [m/s]	speed of sound, 293.15 K [m/s]	speed of sound, 298.15 K [m/s]	speed of sound, 303.15 K [m/s]	speed of sound, 308.15 K [m/s]
m1 = 0.0183	1000.03 ± 0.061	999.121 ± 0.06	997.948 ± 0.06	996.538 ± 0.06	994.913 ± 0.061	1468.7 ± 0.75	1484.7 ± 0.75	1498.8 ± 0.76	1511 ± 0.76	1521.5 ± 0.76
m1 = 0.0274	1000.49 ± 0.061	999.575 ± 0.061	998.397 ± 0.061	996.983 ± 0.061	995.351 ± 0.061	1469.8 ± 0.75	1485.7 ± 0.76	1499.6 ± 0.76	1511.8 ± 0.76	1522.2 ± 0.76
m1 = 0.0367	1000.96 ± 0.061	1000.04 ± 0.06	998.851 ± 0.061	997.432 ± 0.061	995.796 ± 0.061	1471 ± 0.75	1486.7 ± 0.76	1500.5 ± 0.76	1512.6 ± 0.76	1523 ± 0.76
m1 = 0.0459	1001.42 ± 0.061	1000.49 ± 0.062	999.303 ± 0.061	997.878 ± 0.061	996.238 ± 0.061	1472 ± 0.75	1487.7 ± 0.76	1501.5 ± 0.76	1513.4 ± 0.76	1523.7 ± 0.76
m1 = 0.0692	1002.59 ± 0.061	1001.64 ± 0.061	1000.44 ± 0.06	999.002 ± 0.06	997.347 ± 0.061	1474.8 ± 0.76	1490.2 ± 0.76	1503.7 ± 0.76	1515.5 ± 0.76	1525.6 ± 0.77
m1 = 0.0932	1003.78 ± 0.062	1002.82 ± 0.061	1001.6 ± 0.061	1000.15 ± 0.06	998.48 ± 0.06	1477.3 ± 0.76	1492.5 ± 0.76	1505.9 ± 0.76	1517.5 ± 0.76	1527.4 ± 0.77
m1 = 0.1164	1004.92 ± 0.062	1003.94 ± 0.061	1002.71 ± 0.061	1001.24 ± 0.061	999.565 ± 0.06	1480 ± 0.76	1495 ± 0.76	1508.1 ± 0.77	1519.5 ± 0.77	1529.3 ± 0.77
m1 = 0.141	1006.13 ± 0.062	1005.13 ± 0.062	1003.88 ± 0.061	1002.4 ± 0.061	1000.71 ± 0.06	1483 ± 0.76	1497.6 ± 0.77	1510.5 ± 0.77	1521.7 ± 0.77	1531.2 ± 0.77
m1 = 0.1652	1007.3 ± 0.063	1006.29 ± 0.062	1005.02 ± 0.062	1003.53 ± 0.061	1001.83 ± 0.061	1485.6 ± 0.77	1500.1 ± 0.77	1512.7 ± 0.77	1523.7 ± 0.77	1533.1 ± 0.77
m1 = 0.1863	1008.32 ± 0.063	1007.29 ± 0.063	1006.01 ± 0.062	1004.51 ± 0.062	1002.79 ± 0.061	1488 ± 0.77	1502.2 ± 0.77	1514.7 ± 0.77	1525.5 ± 0.77	1534.7 ± 0.78
m1 = 0.2114	1009.53 ± 0.064	1008.48 ± 0.063	1007.19 ± 0.063	1005.67 ± 0.062	1003.94 ± 0.062	1490.8 ± 0.77	1504.8 ± 0.77	1517 ± 0.78	1527.6 ± 0.78	1536.6 ± 0.78
m1 = 0.2376	1010.77 ± 0.065	1009.71 ± 0.064	1008.4 ± 0.063	1006.87 ± 0.063	1005.13 ± 0.062	1493.6 ± 0.77	1507.3 ± 0.78	1519.3 ± 0.78	1529.7 ± 0.78	1538.5 ± 0.78
m1 = 0.2632	1011.99 ± 0.065	1010.91 ± 0.064	1009.58 ± 0.064	1008.03 ± 0.063	1006.28 ± 0.063	1496.4 ± 0.78	1509.8 ± 0.78	1521.7 ± 0.78	1531.8 ± 0.78	1540.4 ± 0.79
m1 = 0.2831	1012.92 ± 0.065	1011.83 ± 0.062	1010.49 ± 0.062	1008.93 ± 0.062	1007.17 ± 0.063	1498.5 ± 0.78	1511.8 ± 0.78	1523.4 ± 0.78	1533.4 ± 0.78	1541.8 ± 0.79
